The text below walks through data of US11918550B2, “Sensitization of cancer cells to differentiation therapy with mitochondrial uncoupler niclosamide ethanolamine” (The Board of Trustees of the Leland Stanford Junior …, priority 2020, dated 2024).

Holding throughout (type): cell-based
One assay deals with CHP134. In words: Cell proliferation and morphology change under RA treatment. The conditions noted are these: CHP134, 13-cis-RA. The procedure:
(§1) Cell proliferation and clonogenic assay. 2×10^4 cells were seeded in 12 well-plate and allowed to attached overnight. Then the cells were treated with various conditions as indicated for 48 h or 96 h (n=3). After treatment, cells were counted using hemocytometer.

The test system of another assay is SK-N-BE(2). Described as above. The conditions noted are these: 13-cis-RA. As for the experimental part:
as §1

In the next assay the test system is SMS-KCNR. Described as above. The conditions noted are these: 13-cis-RA. As for the experimental part: as §1
A further assay relates to NB16. Described as above. The conditions noted are these: NB16, 13-cis-RA. The procedure:
as §1

A further assay relates to NB16 cells. In words: Expression of RA receptors under RA treatment. The conditions noted are these: NB16, RA 24 h. As for the experimental part:
(§2) Protein extraction and immunoblot. Cells were washed with ice-cold PBS buffer (Invitrogen, 20012050) and lysed with harvest buffer (10 mM Hepes pH 7.9, 50 mM NaCl, 500 mM sucrose, 0.1 mM EDTA and 0.5% Trition X-100) supplemented with 1% Halt inhibitors (Thermo Scientific™, 78443) for 10 minutes. Cell lysate was centrifuged at 3000 rpm for 3 min at 4° C. The supernatant containing cytosolic proteins was transferred to a different tube. The pellet containing nuclear proteins was dissolved with nuclear lysis buffer (10 mM Hepes pH 7.9, 0.5M NaCl, 0.1 mM EDTA, 0.1 mM EGTA and 0.1% NP40) supplemented with 1% Halt inhibitors (Thermo Scientific™, 78443) for 5 minutes at 4° C. Then the solution was sonicated at 4° C. for 6 cycles (1 cycle=30 s sonication and 30 s cooldown with “High” energy intensity) using a Bioruptor® Plus sonication (Diagenode, UCD-300). After sonication, the solution was centrifuged at 15,000 rpm for 10 minutes. The supernatant was kept as nuclear extraction. Protein concentration was determined by BCA assay (Thermo Scientific, 23227). 5 μg nuclear proteins or 7.5 μg cytosolic proteins were boiled in loading buffer with reducing reagents (Invitrogen, NuPAGE™ LDS Sample Buffer (4X), NP0007), then separated with SDS-PAGE (Nupage™ 4-12% Bis-Tris Protein Gels, 1.0 mm, Invitrogen™, NP0322BOX). Protein was transferred onto a nitrocellulose membrane (Thermo Scientific™, 88018). After blocking in 5% non-fat milk for 30 minutes at room temperature (RT), the primary antibody was added for incubation overnight at 4° C. After washing with TBST (CST, #9997, 1:10 diluted by deionized water) for 3 times, HRP-conjugated secondary antibodies were applied. Signals were detected with an ECL kit (Thermo Scientific™, 34577) by using BioRad Universal Hood II.

The next assay has as its system SK-N-BE2. The assay is described as follows: Expression of RA receptors under RA treatment. Particulars: SK-N-BE2, RA 24 h. The procedure:
as §2

In assay [1] the test system is SK-N-BE(2) cells. The assay is described as follows: Western blot of RA signaling proteins. The conditions noted are these: 1 μM 5-AZA with 1 μM RA, 24 hrs. The procedure:
as §2

Assay [2] relates to RA-resistant neuroblastoma cells. In words: Morphological differentiation with 5-AZA and 13-cis-RA. The conditions noted are these: 5-AZA with 1 μM 13-cis-RA, 3 days and 6 days.
In assay [3] the test system is SK-N-BE(2) cells. In words: Global DNA methylation analysis by LC-MS (5mdc/dc). Particulars: 1 μM, 5 h, 24 h and 48 h vs DMSO.

On to `CC1=C(/C=C/C(C)=C/C=C/C(C)=C\C(=O)O)C(C)(C)CCC1` [RA, 13-cis-retinoic acid], for which the proliferation result with CHP134 (48 hrs and 96 hrs) was “proliferation arrest”; in the assay on SMS-KCNR (48 hrs and 96 hrs), “proliferation arrest”. Also, the neuron differentiation morphology result in the assay with CHP134 (96 hrs) and in the assay with SMS-KCNR (96 hrs) was “significantly induced” throughout. Moreover, the proliferation arrest result is on record as “did not show” in the assay on SK-N-BE(2) (48 hrs and 96 hrs); “did not show” with NB16 (48 hrs and 96 hrs). In addition, the differentiation morphology result with SK-N-BE(2) (96 hrs) and with NB16 (96 hrs) was “did not show” throughout. The “induction of RARα upon RA treatment (vs RA-sensitive cell lines)” value in the assay on NB16 cells and in the assay with SK-N-BE2 was “less induction” throughout. For the same compound, the “induction of RARγ upon RA treatment (vs RA-sensitive cell lines)” value with NB16 cells and in the assay on SK-N-BE2 was “less induction” each time.
Take `Nc1ncn([C@@H]2O[C@H](CO)[C@@H](O)[C@H]2O)c(=O)n1` [5-Aza, 5-Azacytidine]: in the assay with SK-N-BE(2) cells [1], the “RA-induced expression of CRABP2” value is listed as “enhanced” and the “RA-induced expression of RARγ” value is “enhanced”. The “differentiation with RA (morphological changes)” value in assay [2] is “induced differentiation”. The “global DNA methylation (ratio of 5-methyl-deoxycytidine to deoxycytidine)” value in the assay with SK-N-BE(2) cells [3] is given as “reduced”.
